The record followed here is patent publication US20070203112A1, “BLADDER CANCER TREATMENT AND METHODS” (priority 2006, published 2007).

For this data set, the system named is DLD-1 multicell layers. Briefly: Penetration of EO9 through DLD-1 multicell layers (transwell apparatus, HPLC). It counts as in vitro ADME, human.

Experimental: The cell line used in this study was DLD-1 human colon adenocarcinoma cells which was selected because of its ability to form tight junctions between cells thereby forming a continuous ‘barrier’ across which the drug must cross. To assess drug penetration, drugs were added to the top chamber and the concentration of drug in the bottom chamber was determined over a range of time intervals.
DLD-1 cells (2.5×10^5 in 200 μl of medium) were added to the top chamber and allowed to settle and attach to the membrane for approximately 3 hours at 37° C. in a CO2 enriched (5%) atmosphere. Once cells attached, the transwell was inserted into one well of a 24 well plate and 600 μl media was added to the bottom chamber. The apparatus was then incubated at 37° C. for 4 days with daily media changes to both the upper and lower chamber. […] For each assay, 3 transwells were removed for histological examination and accurate determination of thickness and integrity (see below for details).
Throughout all procedures, the media used was as described above except for the fact that phenol red free media was used (phenol red elutes very close to EO9 on the chromatograms). EO9 was added to the top chamber at t=0 in a volume of 100 μl and the bottom chamber contained 600 μl of media (constantly stirred). […]

For the molecule `Cn1c(/C=C/CO)c(CO)c2c1C(=O)C=C(N1CC1)C2=O` [EO9, 3-hydroxymethyl-5-aziridinyl-1-methyl-2-(1H-indole-4,7-dione)-propenol], for the setting “as the concentration of PG increases, 347 μM in top chamber, 10 minute intervals over 1 hour”, the “multicell layer penetration rate of EO9” value is reported as “decreases”. Besides, for the setting “at any of the evaluated time points of the penetration experiment”, the “metabolites or breakdown products observed” value is listed as “No obvious metabolites or breakdown products were observed”.
